# From the supplement of paper PMC9763283
# How the values were obtained:
# Test in all cases: area under growth-rate inhibition curve (AUC GRI) (dimensionless (GR-based AUC)); higher = less growth inhibition
# Conditions in all cases: exposure time: 72 h; concentrations: 0.1, 1, 10 uM
# MDA-MB-468 = system: MDA-MB-468
# Summary of the method: (§1)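 Nuclear counts from Hoechst 33342- or DAPI-stained images were used to estimate the area under the growth-rate inhibition curve, with growth corrected by reference to untreated and DMSO-treated plates and starting plates. The six breast cancer cell line models, comprising two triple-negative lines and parental and drug-combination-resistant HER2+ lines, were treated with compound at 0.1, 1 or 10 µM for 72 h. Data came from 2 biological replicates, using Day 0 and Day 3 plates.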
# BT474-P = system: BT474-P
# Summary of the method: as §1
# MDA-MB-231 = system: MDA-MB-231
# Summary of the method: as §1
# SKBR3-LTR = system: SKBR3-LTR
# Summary of the method: as §1
# BT474-LTR = system: BT474-LTR
# Summary of the method: as §1
# SKBR3-P = system: SKBR3-P
# Summary of the method: as §1
SMILES,area under growth-rate inhibition curve (MDA-MB-468),area under growth-rate inhibition curve (BT474-P),area under growth-rate inhibition curve (MDA-MB-231),area under growth-rate inhibition curve (SKBR3-LTR),area under growth-rate inhibition curve (BT474-LTR),area under growth-rate inhibition curve (SKBR3-P)
C[C@@H](NCCCc1cccc(C(F)(F)F)c1)c1cccc2ccccc12.[Cl-].[H+] [Cinacalcet HCl],0.896,0.9,0.931,0.883,0.922,0.909
CNC[C@H](O)c1cccc(O)c1.Cl [Phenylephrine HCl],1.03,1.01,0.996,1.02,1.09,0.985
C[NH+]1CCC[C@@H]1CCO[C@](C)(c1ccccc1)c1ccc(Cl)cc1.O=C([O-])/C=C/C(=O)O [Clemastine Fumarate],0.932,0.941,1.02,0.958,1.02,0.898
Cc1ccc(-n2nccn2)c(C(=O)N2CCN(c3nc4cc(Cl)ccc4o3)CCC2C)c1 (stereo unspecified) [Suvorexant (MK-4305)],0.955,1.02,1.02,1.04,1.05,0.995
COc1ccccc1Oc1c(NS(=O)(=O)c2ccc(C(C)(C)C)cc2)nc(-c2ncccn2)nc1OCCO.O [Bosentan Hydrate],1.01,1.04,1.04,1.06,1.09,1.01
Cl.O=C1CC[C@@]2(O)[C@H]3Cc4ccc(O)c5c4[C@@]2(CCN3CC2CC2)[C@H]1O5 [Naltrexone HCl],1.04,1.05,1.03,1.06,1.09,1.05
CCCN(CCc1cccs1)[C@H]1CCc2c(O)cccc2C1 [Rotigotine],0.992,1.05,1.03,1.08,1.08,0.984
OC[C@H]1O[C@@H](c2ccc(Cl)c(Cc3ccc(O[C@H]4CCOC4)cc3)c2)[C@H](O)[C@@H](O)[C@@H]1O,1.05,1.03,1.03,1.09,1.07,1.03
C=CCN1CC(C(=O)N(CCCN(C)C)C(=O)NCC)CC2c3cccc4[nH]cc(c34)CC21 (stereo unspecified) [Cabergoline],1.05,1.01,1.04,1.05,1.05,1.03
CNC(=O)[C@@H](c1ccccc1)N1CCc2cc(OC)c(OC)cc2[C@@H]1CCc1ccc(C(F)(F)F)cc1.Cl [Almorexant HCl],1,0.976,1.01,0.988,1.07,0.977
CN(C)CC(c1ccc(O)cc1)C1(O)CCCCC1.O=C(O)CCC(=O)O (stereo unspecified) [Desvenlafaxine Succinate],1.05,1.06,1.02,1.08,1.09,1.01
Nc1nc(CC(=O)Nc2ccc(CCNCC(O)c3ccccc3)cc2)cs1 (stereo unspecified) [Mirabegron],1.01,1.04,1.02,1.07,1.11,1.02
COc1ccc(CN(C(=O)C(N)Cc2c(C)cc(C(N)=O)cc2C)C(C)c2ncc(-c3ccccc3)[nH]2)cc1C(=O)O (stereo unspecified) [Eluxadoline],1.04,1,1.04,1.04,1.04,1.02
CCCCC(=O)O[C@H]1CC[C@H]2[C@@H]3CCc4cc(O)ccc4[C@H]3CC[C@]12C [Estradiol valerate],1.03,1.04,1.01,1.05,1.05,1.02
C=CCN1CCC23c4c5ccc(O)c4OC2C(OCCOCCOCCOCCOCCOCCOCCOC)CCC3(O)C1C5 (stereo unspecified) [Naloxegol],1.02,1,0.991,1.01,0.997,1.01
CCOC(=O)C1(c2ccccc2)CCN(C)CC1 [meperidine],1.04,0.992,1.04,1.06,1.04,1.02
CC(=O)OCC[N+](C)(C)C.[Cl-] [Acetylcholine Chloride],1.04,1.03,1.04,1.05,1.09,1.02
CCOC(=O)NC1CCC2C(C1)CC1C(=O)OC(C)C1C2C=Cc1ccc(-c2cccc(F)c2)cn1 (stereo unspecified) [Vorapaxar],0.966,0.947,1.01,0.983,1.04,0.944
COc1cc(OC)c(NC(=O)Nc2cc(C)on2)cc1Cl,1.02,0.977,1.03,1.06,1.05,1
Cc1cncc(CN2CCC(=C3c4ccc(Cl)cc4CCc4cccnc43)CC2)c1.O=C(O)/C=C/C(=O)O [Rupatadine Fumarate],0.972,0.974,1.05,1.03,1.05,0.966
O=C1CCc2cc(OCCCCc3nnnn3C3CCCCC3)ccc2N1 [Cilostazol],1.03,1,1.05,1.06,1.04,1.03
CNCc1ccc(C)c(NC(=O)c2ccc(Nc3nc(-c4ccccc4)c4ccccc4n3)cc2)c1,0.856,0.853,0.877,0.914,1.08,0.876
CCC1(c2ccccc2)C(=O)NCNC1=O [Primidone],1.03,0.982,1.04,1.06,1.02,1.03
CC(=O)Oc1cc2c(s1)CCN(C(C(=O)C1CC1)c1ccccc1F)C2 (stereo unspecified) [Prasugrel],1.04,1.05,1.03,1.03,1.13,1.02
[Cl-].[H+].c1ccc(CN(CC2=NCCN2)c2ccccc2)cc1 [Antazoline hydrochloride],1.04,1.01,1.03,1.05,1.05,1.03
CCN(CC)CCCCN1c2ccccc2Oc2ccc(Cl)cc21.Cl [10-DEBC hydrochlorid],1.06,1.04,1.04,1.05,0.995,1.04
